Data from US12497411B2, “Muscarinic acetylcholine receptor subtype 4 antagonists in the treatment of anemia” (COLD SPRING HARBOR LABORATORY, priority 2019, dated 2025).
Where a name gives a salt, the structure may show the parent alone.

Experiments:
[1] = molecular target: T1, human recombinant CHRM1 receptor (Homo sapiens, UniProt P11229); assay: Radioligand binding assay, CHRM1; details: [3H]pirenzepine (2 nM), CHO cell membranes, 60 minutes at room temperature; read-out: Ki M1
T1 construct: expressed in transfected cells; host or cells: CHO cells (membranes)
T1 sequence (P11229 1-460): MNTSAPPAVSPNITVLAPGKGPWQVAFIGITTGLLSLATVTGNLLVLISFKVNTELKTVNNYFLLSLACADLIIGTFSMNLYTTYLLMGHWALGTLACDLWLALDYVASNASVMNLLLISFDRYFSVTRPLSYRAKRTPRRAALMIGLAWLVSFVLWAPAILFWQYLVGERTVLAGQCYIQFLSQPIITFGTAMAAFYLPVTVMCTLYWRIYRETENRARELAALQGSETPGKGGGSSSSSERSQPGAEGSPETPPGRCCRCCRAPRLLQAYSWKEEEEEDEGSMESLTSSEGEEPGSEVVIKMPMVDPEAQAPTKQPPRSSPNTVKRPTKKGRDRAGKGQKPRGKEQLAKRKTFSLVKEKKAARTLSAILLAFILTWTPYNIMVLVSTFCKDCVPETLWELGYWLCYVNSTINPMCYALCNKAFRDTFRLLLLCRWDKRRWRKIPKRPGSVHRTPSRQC
Method: (§1) PD102807 and Compounds A-K at concentrations of 1×10^−9 M, 1×10^−8 M, 1×10^−7 M, 1×10^−6 M, and 1×10^−5 M were tested in standard binding assays with radioligands and cell membranes with receptors. Compound binding was calculated as a percent inhibition of the binding of a radioactively labeled ligand specific for each target, and the Ki values were determined. For CHRM1, the binding assay was performed using [^3H]pirenzepine (2 nM) as a radioligand and membranes of CHO cells with human recombinant CHRM1 receptor. The incubation time was 60 minutes at room temperature. For CHRM2, the binding assay was performed using [^3H]AF-DX 384 (2 nM) as a radioligand and membranes of CHO cells with human recombinant CHRM2 receptor. The incubation time was also 60 minutes at room temperature. For CHRM3, the binding assay was performed using [^3H]4-DAMP (0.2 nM) as a radioligand and membranes of CHO cells with human recombinant CHRM3 receptor. The incubation time was also 60 minutes at room temperature. For CHRM4, the binding assay was performed using [^3H]4-DAMP (0.2 nM) as a radioligand and membranes of CHO cells with human recombinant CHRM4 receptor. The incubation time was also 60 minutes at room temperature. For CHRM5, the binding assay was performed using [^3H]4-DAMP (0.3 nM) as a radioligand and membranes of CHO cells with human recombinant CHRM5 receptor. The incubation time was also 60 minutes at room temperature.

[2] = molecular target: T2, human recombinant CHRM2 receptor (Homo sapiens, UniProt P08172); assay: Radioligand binding assay, CHRM2; details: [3H]AF-DX 384 (2 nM), CHO cell membranes, 60 minutes at room temperature; read-out: Ki M2
T2 construct: expressed in transfected cells; host or cells: CHO cells (membranes)
T2 sequence (P08172 1-466): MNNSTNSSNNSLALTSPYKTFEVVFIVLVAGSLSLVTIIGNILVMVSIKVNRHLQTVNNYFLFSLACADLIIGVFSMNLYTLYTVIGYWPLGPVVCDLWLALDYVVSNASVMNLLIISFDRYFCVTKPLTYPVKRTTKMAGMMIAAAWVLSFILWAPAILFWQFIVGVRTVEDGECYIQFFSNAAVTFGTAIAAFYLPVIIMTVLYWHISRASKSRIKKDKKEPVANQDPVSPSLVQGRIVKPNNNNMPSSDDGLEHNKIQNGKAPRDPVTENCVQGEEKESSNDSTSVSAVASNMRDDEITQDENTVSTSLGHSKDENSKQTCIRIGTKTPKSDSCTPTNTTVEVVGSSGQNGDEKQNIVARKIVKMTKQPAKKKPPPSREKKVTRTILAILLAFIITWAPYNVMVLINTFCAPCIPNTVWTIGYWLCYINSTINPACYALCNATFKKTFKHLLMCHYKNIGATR
Method: as §1

[3] = molecular target: T3, CHRM4 (Homo sapiens, UniProt P08173); assay: Radioligand binding assay, CHRM4; parameters: expressed in transfected cells; host or cells: CHO cells (membranes); details: [3H]4-DAMP (0.2 nM), CHO cell membranes, 60 minutes at room temperature; read-out: Ki M4
T3 sequence (P08173 1-479): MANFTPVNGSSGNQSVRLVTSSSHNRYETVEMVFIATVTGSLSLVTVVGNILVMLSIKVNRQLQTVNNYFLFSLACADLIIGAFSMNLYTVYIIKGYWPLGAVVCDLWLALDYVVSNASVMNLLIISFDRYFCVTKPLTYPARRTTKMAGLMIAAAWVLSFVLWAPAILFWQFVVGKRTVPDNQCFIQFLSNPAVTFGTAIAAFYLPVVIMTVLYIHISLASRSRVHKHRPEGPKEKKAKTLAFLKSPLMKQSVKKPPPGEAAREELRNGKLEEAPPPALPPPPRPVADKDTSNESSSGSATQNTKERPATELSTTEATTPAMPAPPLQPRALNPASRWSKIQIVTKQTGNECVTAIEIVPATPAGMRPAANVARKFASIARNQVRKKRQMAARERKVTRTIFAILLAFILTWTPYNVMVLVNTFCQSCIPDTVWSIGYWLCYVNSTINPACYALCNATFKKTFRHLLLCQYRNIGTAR
Method: as §1

[4] = molecular target: T4, human recombinant CHRM3 receptor (Homo sapiens, UniProt P20309); assay: Radioligand binding assay, CHRM3; details: [3H]4-DAMP (0.2 nM), CHO cell membranes, 60 minutes at room temperature; read-out: Ki M3
T4 construct: expressed in transfected cells; host or cells: CHO cells (membranes)
T4 sequence (P20309 whole entry): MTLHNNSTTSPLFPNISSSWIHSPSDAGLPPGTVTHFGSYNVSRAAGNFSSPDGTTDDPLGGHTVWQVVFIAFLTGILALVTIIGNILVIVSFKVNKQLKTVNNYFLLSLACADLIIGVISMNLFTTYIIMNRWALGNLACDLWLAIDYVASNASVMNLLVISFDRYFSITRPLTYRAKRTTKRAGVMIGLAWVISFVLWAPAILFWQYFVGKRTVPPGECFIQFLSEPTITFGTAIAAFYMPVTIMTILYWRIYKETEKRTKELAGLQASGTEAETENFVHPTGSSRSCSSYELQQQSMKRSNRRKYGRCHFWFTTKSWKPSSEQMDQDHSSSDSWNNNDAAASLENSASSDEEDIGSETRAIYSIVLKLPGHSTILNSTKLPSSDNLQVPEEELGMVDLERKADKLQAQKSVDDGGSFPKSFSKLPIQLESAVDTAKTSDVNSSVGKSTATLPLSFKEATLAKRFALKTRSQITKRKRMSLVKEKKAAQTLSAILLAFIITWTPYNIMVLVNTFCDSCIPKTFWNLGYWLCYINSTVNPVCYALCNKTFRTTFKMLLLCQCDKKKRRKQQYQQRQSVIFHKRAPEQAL
Method: as §1

[5] = system: Mouse BFU-Es; assay: Primary mouse BFU-E culture assay (cell expansion); type: cell-based; details: for potency in stimulating BFU-E expansion: mouse primary cell BFU-E culture assay
Method: Primary mouse BFU-Es were isolated from mouse embryonic day 14.5 (E14.5) fetal liver and cultured in StemSpan serum-free expansion medium, and the numbers of cells formed were counted during culture. BFU-Es were infected with either viruses encoding control shRNA or viruses encoding shRNAs targeting Chrm4, and numbers of GFP+ cells formed during culture were counted. DMSO or 25 mg/kg oxyphenonium bromide was intraperitoneally injected into the hemolysis mouse model, Mx1-cre Srsf2 P95H/WT MDS mouse model, and aging mouse model. Complete blood count (CBC) was performed after compound injection. CREB ChIP-Seq was performed on BFU-Es after culture with 100 μM oxyphenonium bromide for 45 minutes. RNA-Seq was performed in BFU-Es after being cultured with DMSO or oxyphenonium bromide for 3 days.
BFU-Es were isolated from mouse embryonic day 14.5 fetal liver using fluorescence-activated cell sorting (FACS) method previously described (Flygare et al., Blood 117, 3435-3444 (2011)). BFU-Es were cultured in StemSpan SFEM II medium containing rmSCF (100 ng/ml), EPO (2 U/ml), rmIGF-1 (40 ng/ml), dexamethasone (1 nmol/ml or 10 nmol/ml), oxyphenonium bromide ([…]), and orphenadrine citrate (1 μmol/ml).
BFU-Es were isolated from mouse embryonic day 14.5 fetal liver using fluorescence-activated cell sorting (FACS) method. BFU-Es were cultured in StemSpan SFEM II medium containing rmSCF (100 ng/ml), EPO (2 U/ml), rmIGF-1 (40 ng/ml), dexamethasone (1 nM), together with either DMSO, PCS1055 (5 nM), or PD102807 (3 nM). Numbers of cell formed were counted during in vitro culture.
FIGS. 7 and 8 show the results of the primary BFU-E culture assay. […] Highly purified BFU-Es were isolated as lin-Ter-119-CD16/CD32-Sca-1-CD41-c-Kit+CD71/Cd24a^10% low population using the fluorescence-activated cell sorting (FACS) method. BFU-Es were cultured in medium containing rmSCF, EPO, and rmIGF-1, in the presence of PD102807 or Compounds A-K at indicated concentrations.

[6] = system: PHZ induced hemolytic anemia in C57bl/6 mice; assay: PHZ induced hemolytic anemia mouse model, CBC; type: in vivo; details: subcutaneous injection; B 1.5, 3 or 5 mg/kg; I 0.5, 0.7 or 1 mg/kg; 60 mg/kg phenylhydrazine
Method: Animal experiments were conducted in the Cold Spring Harbor Laboratory Animal Shared Resource in accordance with Institutional Animal Care and Use Committee-approved procedures. 4-6 weeks old C57bl/6 mice, purchased from Jackson Laboratory and randomly distributed into compound and control treatment groups, were given through oral delivery of PCS1055 (50 mg/kg or 100 mg/kg) twice per day or PD102807 (50 mg/kg or 100 mg/kg) once per day everyday for 3 days. On day 3, mice were intraperitoneally injected with 60 mg/kg PHZ. Mice were then given through oral delivery of PD102807 (50 mg/kg or 100 mg/kg) once per day every day for 2 days. Peripheral blood samples were collected retro-orbitally on day 6 using heparinized capillary tubes in blood collection tubes with K2-EDTA. CBC was performed using Hemavet 950. […] C57bl/6 mice were injected with 60 mg/kg phenylhydrazine to induce hemolysis. Mice were delivered with either vehicle control or Compound A or B (30 mg/kg or 100 mg/kg). Peripheral blood samples were collected retro-orbitally using heparinized capillary tubes into blood collection tubes with K2-EDTA. Complete blood counting was performed using Hemavet 950. Hematocrit (HCT), red blood cell (RBC) and hemoglobin (Hb) values are shown. […] C57bl/6 mice were injected with 60 mg/kg phenylhydrazine to induce hemolysis. Mice were delivered with subcutaneous injection with either vehicle control or Compound B (1.5 mg/kg, 3 mg/kg, or 5 mg/kg) or I (0.5 mg/kg, 0.7 mg/kg, or 1 mg/kg). Peripheral blood samples were collected retro-orbitally using heparinized capillary tubes into blood collection tubes with K2-EDTA. Complete blood counting was performed using Hemavet 950. Hematocrit (HCT), red blood cell (RBC) and hemoglobin (Hb) values are shown.

[7] = molecular target: T5, human recombinant CHRM5 receptor (Homo sapiens, UniProt P08912); assay: Radioligand binding assay, CHRM5; details: [3H]4-DAMP (0.3 nM), CHO cell membranes, 60 minutes at room temperature; read-out: Ki M5
T5 construct: expressed in transfected cells; host or cells: CHO cells (membranes)
T5 sequence (P08912 1-532): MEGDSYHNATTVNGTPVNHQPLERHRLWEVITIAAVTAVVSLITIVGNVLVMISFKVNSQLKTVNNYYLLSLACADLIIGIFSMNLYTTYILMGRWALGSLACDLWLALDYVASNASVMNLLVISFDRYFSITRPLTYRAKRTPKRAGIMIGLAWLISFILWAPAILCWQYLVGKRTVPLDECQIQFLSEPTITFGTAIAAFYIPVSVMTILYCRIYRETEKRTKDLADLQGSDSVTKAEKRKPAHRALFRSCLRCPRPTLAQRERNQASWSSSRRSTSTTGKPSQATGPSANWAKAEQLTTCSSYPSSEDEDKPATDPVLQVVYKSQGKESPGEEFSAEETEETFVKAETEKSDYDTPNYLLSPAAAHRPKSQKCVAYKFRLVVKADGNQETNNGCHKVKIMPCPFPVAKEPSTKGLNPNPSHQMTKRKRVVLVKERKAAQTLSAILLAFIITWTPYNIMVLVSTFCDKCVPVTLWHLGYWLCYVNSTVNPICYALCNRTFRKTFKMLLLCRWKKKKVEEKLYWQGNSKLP
Method: as §1

Row | Structure (SMILES) | Ki [1] [nM] | Ki [2] [nM] | Ki [3] [nM] | Ki [4] [nM] | Ki [7] [nM] | potency in stimulating BFU-E expansion [5] | treatment of anemia in vivo (HCT, RBC, Hb) [6] | fold cell expansion ([5]; 5 μM KT5720 (with 3 nM PD102807), day 9, vs untreated) | BFU-E expansion (test of GPCR agonists and antagonists) ([5]; mouse BFU-E culture)
1 | CCOC(=O)c1c(C)[nH]c2ccc(OC)c(CN3CCc4cc(OC)ccc4C3)c12 [Compound E, ethyl 5-methoxy-4-((6-methoxy-3,4-dihydroisoquinolin-2(1H)-yl)methyl)-2-methyl-1H-indole-3-carboxylate] | 8500 | 2600 | 1500 | – | – | – | – | – | –
2 | CCOC(=O)c1c(C)n(C)c2ccc3c(c12)CN1CCc2cc(OC)ccc2C1O3 (centres unmarked) [Compound C, Ethyl 9-methoxy-2,3-dimethyl-3,6a,11,14-tetrahydro-12H-indolo[4′,5′:5,6][1,3]oxazino[2,3-a]isoquinoline-1-carboxylate] | 5200 | 850 | 4.6 | 600 | – | – | – | – | –
3 | CCOC(=O)c1c(C)[nH]c2ccc3c(c12)C[N+]1(C)CCc2cc(OC)ccc2C1O3 (single isomer, unassigned) [Compound B, 1-(ethoxycarbonyl)-9-methoxy-2,13-dimethyl-3,6a,11,12,13,14-hexahydroindolo[4′,5′:5,6][1,3]oxazino[2,3-a]isoquinolin-13-ium Iodide] | – | – | 4300 | – | – | slightly less potent than the others | treat anemia in vivo | – | –
4 | CCCCCCOC(=O)[C@]1(O)C[C@@H]2O[C@@]1(C)n1c3ccccc3c3c4c(c5c6ccccc6n2c5c31)C(=O)NC4 [KT5720] | – | – | – | – | – | – | – | significantly reduced fold cell expansion | –
5 | Cc1ccccc1C(OCCN(C)C)c1ccccc1 (centres unmarked) [orphenadrine citrate] | – | – | – | – | – | – | – | – | triggered BFU-E expansion

Further lines, with some results ahead:

Row | Ki [1] [nM] | Ki [2] [nM] | Ki [3] [nM] | Ki [4] [nM] | Ki [7] [nM] | Structure (SMILES) | potency in stimulating BFU-E expansion [5] | treatment of anemia in vivo (HCT, RBC, Hb) [6] | fold cell expansion ([5]; 5 μM KT5720 (with 3 nM PD102807), day 9, vs untreated) | BFU-E expansion (test of GPCR agonists and antagonists) ([5]; mouse BFU-E culture)
6 | – | 3900 | 950 | 3900 | – | CCOC(=O)c1c(C)n(C)c2ccc(OC)c(CN3CCc4cc(OC)ccc4C3)c12 [F] | slightly less potent than the others | – | – | –
7 | 280 | 59 | 42 | 740 | – | CCOC(=O)c1c(C)n(C)c2ccc(O)c(CN3CCc4cc(OC)ccc4C3)c12 [Compound D, Ethyl 5-hydroxy-4-((6-methoxy-3,4-dihydroisoquinolin-2(1H)-yl)methyl)-1,2-dimethyl-1H-indole-3-carboxylate] | – | – | – | –
8 | 1300 | 750 | 8.9 | 1700 | – | CCOC(=O)c1c(C)n(C)c2cc(CN3CCc4cc(OC)ccc4C3)c(OC)cc12 [J] | – | – | – | –
9 | 54 | 100 | 54 | 400 | 980 | CCOC(=O)c1c(C)n(C)c2cc(C[N+]3(C)CCc4cc(OC)ccc4C3)c(OC)cc12 (centres unmarked) [Compound K] | – | – | – | –
